Holding throughout (assay): relative viability (nuclei count vs DMSO), 5 days (fraction); higher = more cells survive
Compound in the experiment “Alpelisib + Crizotinib”: Cc1nc(NC(=O)N2CCC[C@H]2C(N)=O)sc1-c1ccnc(C(C)(C)C(F)(F)F)c1 [Alpelisib] + C[C@@H](Oc1cc(-c2cnn(C3CCNCC3)c2)cnc1N)c1c(Cl)ccc(F)c1Cl [Crizotinib] (partner 1 µM)
In short, it runs like this: (§1)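 Lung cancer cell lines were pin-tool dosed in 1536-well plates on the day after seeding, with either a lone drug or a fixed anchor-drug dose plus five library-drug doses (not always all listed) in √10 steps. Nuclei were counted on 4× images after 5 days. Relative viability is the ratio of treated-well to vehicle-well nuclei counts, with each value a median of duplicate plates.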

Compound in the experiment “Alpelisib + Phenformin”: Cc1nc(NC(=O)N2CCC[C@H]2C(N)=O)sc1-c1ccnc(C(C)(C)C(F)(F)F)c1 [Alpelisib] + N=C(N)NC(=N)NCCc1ccccc1 [Phenformin] (partner 250 µM)
In short, it runs like this: as §1

Compound in the experiment “Vemurafenib + Alpelisib”: CCCS(=O)(=O)Nc1ccc(F)c(C(=O)c2c[nH]c3ncc(-c4ccc(Cl)cc4)cc23)c1F [Vemurafenib] + Cc1nc(NC(=O)N2CCC[C@H]2C(N)=O)sc1-c1ccnc(C(C)(C)C(F)(F)F)c1 [Alpelisib] (partner 2 µM)
In short, it runs like this: as §1

Compound in the experiment “Vemurafenib + Foretinib”: CCCS(=O)(=O)Nc1ccc(F)c(C(=O)c2c[nH]c3ncc(-c4ccc(Cl)cc4)cc23)c1F [Vemurafenib] + COc1cc2c(Oc3ccc(NC(=O)C4(C(=O)Nc5ccc(F)cc5)CC4)cc3F)ccnc2cc1OCCCN1CCOCC1 [Foretinib] (partner 0.25 µM)
In short, it runs like this: as §1

For the cell line UMC-11, the relative viability with Alpelisib + Crizotinib (first compound 0.04 µM) was determined as 0.589; in the experiment with Alpelisib + Crizotinib (first compound 0.1265 µM), 0.516; with Alpelisib + Crizotinib (first compound 0.4 µM), 0.724; with Alpelisib + Crizotinib (first compound 1.265 µM), 0.688; in the experiment with Alpelisib + Crizotinib (first compound 4 µM), 0.536; in the experiment with Alpelisib + Phenformin (first compound 0.04 µM), 0.302. Moreover, the relative viability with Alpelisib + Phenformin (first compound 0.1265 µM) came to 0.325; with Alpelisib + Phenformin (first compound 0.4 µM), 0.326; with Alpelisib + Phenformin (first compound 1.265 µM), 0.31; with Alpelisib + Phenformin (first compound 4 µM), 0.262; with Vemurafenib + Alpelisib (first compound 0.03162 µM), 0.954; with Vemurafenib + Alpelisib (first compound 0.1 µM), 0.947. Also, the relative viability with Vemurafenib + Alpelisib (first compound 0.3162 µM) amounted to 1.09; with Vemurafenib + Alpelisib (first compound 1 µM), 0.91; with Vemurafenib + Foretinib (first compound 0.03162 µM) it was 1.02; with Vemurafenib + Foretinib (first compound 0.1 µM), 1; in the experiment with Vemurafenib + Foretinib (first compound 0.3162 µM) it was 1.15; in the experiment with Vemurafenib + Foretinib (first compound 1 µM), 0.923.

Values taken from the supplement of paper PMC10307832.
